Data from publication PMC6270184, “Synthesis and Structure-Activity Relationships of Amino Acid Conjugates of Cholanic Acid as Antagonists of the EphA2 Receptor” (Molecules, 2013).
Where two headings read alike, the source gives them in different places.

Columns and labels:
EphA2 receptor [1] = molecular target: T1, EphA2 receptor (Mus musculus, UniProt Q03145); test: ELISA displacement of ephrin-A1 binding from immobilized EphA2 receptor; details: for ability to disrupt the EphA2-ephrin-A1 interaction (in words): ELISA binding assay
T1 sequence (Q03145 with tags, fused parts or gaps limits assumed): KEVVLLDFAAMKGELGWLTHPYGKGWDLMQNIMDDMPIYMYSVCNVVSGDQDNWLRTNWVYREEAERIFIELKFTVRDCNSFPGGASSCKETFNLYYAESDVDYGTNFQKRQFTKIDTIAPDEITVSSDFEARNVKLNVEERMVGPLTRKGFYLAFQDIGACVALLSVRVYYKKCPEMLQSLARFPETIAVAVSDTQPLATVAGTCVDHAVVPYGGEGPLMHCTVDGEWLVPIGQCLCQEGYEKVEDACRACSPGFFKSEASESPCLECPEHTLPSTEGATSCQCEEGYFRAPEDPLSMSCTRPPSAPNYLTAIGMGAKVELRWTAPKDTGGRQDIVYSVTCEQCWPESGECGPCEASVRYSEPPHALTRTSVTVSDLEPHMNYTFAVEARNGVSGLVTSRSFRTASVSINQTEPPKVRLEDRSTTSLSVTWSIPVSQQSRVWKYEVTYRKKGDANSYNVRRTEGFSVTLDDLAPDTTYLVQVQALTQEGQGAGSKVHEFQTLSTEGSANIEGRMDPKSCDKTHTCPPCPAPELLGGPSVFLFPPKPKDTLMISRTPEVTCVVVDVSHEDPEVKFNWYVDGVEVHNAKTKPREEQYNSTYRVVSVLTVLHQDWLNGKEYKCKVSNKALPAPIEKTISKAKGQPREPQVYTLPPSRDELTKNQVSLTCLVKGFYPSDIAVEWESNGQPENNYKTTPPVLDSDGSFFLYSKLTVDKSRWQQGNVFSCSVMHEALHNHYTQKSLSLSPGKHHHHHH
Protocol: The pIC50 values of tested compounds are reported in Table 1, together with the corresponding standard deviations of the mean (SEM).
ELISA assays were performed as previously described. Briefly, compounds were stocked as 5 mM solutions in dimethyl sulfoxide (DMSO) and tested in displacing studies, starting from a concentration of 50 µM. […] The reaction was stopped with 3N HCl 100 µL/well and the absorbance was measured using an ELISA plate reader (Sunrise, TECAN, Männedorf, Switzerland) at 450 nm. IC50 values were determined using one-site competition non-linear regression analysis with Prism software (GraphPad Software Inc., San Diego, CA, USA).

EphA2 receptor [2] = molecular target: T1, EphA2 receptor; details: cited from earlier work
FXR = details: cited from earlier work
TGR5 receptor = details: cited from earlier work
[3] = inhibition of biotinylated ephrin-A1-Fc binding to EphA2-Fc, means ± SEM from at least three independent experiments, read-out: pIC50±SEM (converted)
[4] = ref data from an unpublished study

melting point [°C] | SMILES | IC50 (EphA2 receptor [1]; [3]) [µM] | also measured
 | C[C@H](CCC(=O)O)[C@H]1CC[C@H]2[C@@H]3CCC4CCCC[C@]4(C)[C@H]3CC[C@]12C (some centres unmarked) [Compound 1, cholanic acid] |  | IC50 (EphA2 receptor [1]): 12.3 µM; pIC50, inhibition of the EphA2-ephrin-A1 interaction (EphA2 receptor [2]): 4.91
192 to 195 | C[C@H](CCC(=O)NCC(=O)O)[C@H]1CC[C@H]2[C@@H]3CC[C@@H]4CCCC[C@]4(C)[C@H]3CC[C@]12C [Compound 2, N-(5β-cholan-24-oyl)glycine] |  | 
 | COC(=O)CNC(=O)CC[C@@H](C)[C@H]1CC[C@H]2[C@@H]3CC[C@@H]4CCCC[C@]4(C)[C@H]3CC[C@]12C [Compound 3, Methyl N-(5β-cholan-24-oyl)glycinate] | > 316 | ability to disrupt the EphA2-ephrin-A1 interaction (in words) (EphA2 receptor [1]): inactive
152 to 155 | C[C@H](CCC(=O)NCCC(=O)O)[C@H]1CC[C@H]2[C@@H]3CC[C@@H]4CCCC[C@]4(C)[C@H]3CC[C@]12C [Compound 4, N-(5β-Cholan-24-oyl)-β-alanine] |  | 
 | C[C@H](CCC(=O)NCCS(=O)(=O)O)[C@H]1CC[C@H]2[C@@H]3CC[C@@H]4CCCC[C@]4(C)[C@H]3CC[C@]12C [Compound 5, 2-[N-(5β-Cholan-24-oyl)amino]ethanesulfonic Acid] | > 316 | ability to disrupt the EphA2-ephrin-A1 interaction (in words) (EphA2 receptor [1]): loss of inhibitory activity
98 to 101 | C[C@H](CCC(=O)N[C@@H](Cc1c[nH]c2ccccc12)C(=O)O)[C@H]1CC[C@H]2[C@@H]3CC[C@@H]4CCCC[C@]4(C)[C@H]3CC[C@]12C [Compound 8, N-(5β-cholan-24-oyl)-L-tryptophan] | 28.2 | 
141 to 145 | C[C@H](CCC(=O)N[C@H](Cc1c[nH]c2ccccc12)C(=O)O)[C@H]1CC[C@H]2[C@@H]3CC[C@@H]4CCCC[C@]4(C)[C@H]3CC[C@]12C [Compound 9, N-(5β-cholan-24-oyl)-D-tryptophan] | 63.1 | 
 | C[C@H](CCC(=O)O)[C@H]1CC[C@H]2[C@@H]3CC[C@@H]4C[C@H](O)CC[C@]4(C)[C@H]3CC[C@]12C [LCA, lithocholic acid] |  | agonism of FXR (in words) (FXR): rather potent agonist; agonism of TGR5 (in words) (TGR5 receptor): rather potent agonist
 | C[C@H](CCC(=O)N[C@@H](Cc1c[nH]c2ccccc12)C(=O)O)[C@H]1CC[C@H]2[C@@H]3CC[C@@H]4C[C@H](O)CC[C@]4(C)[C@H]3CC[C@]12C [PCM126/UniPR126] |  | interaction with FXR (in words) (FXR; [4]): does not interact; activity on TGR5 receptor (in words) (TGR5 receptor; [4]): micromolar range

SMILES | melting point [°C] | IC50 (EphA2 receptor [1]; [3]) [µM] | also measured
C[C@H](CCC(=O)N[C@@H](Cc1ccccc1)C(=O)O)[C@H]1CC[C@H]2[C@@H]3CC[C@@H]4CCCC[C@]4(C)[C@H]3CC[C@]12C [Compound 6, N-(5β-Cholan-24-oyl)-L-phenylalanine] | 189 to 192 | 21.4 | 
C[C@H](CCC(=O)N[C@H](Cc1ccccc1)C(=O)O)[C@H]1CC[C@H]2[C@@H]3CC[C@@H]4CCCC[C@]4(C)[C@H]3CC[C@]12C [Compound 7, N-(5β-cholan-24-oyl)-D-phenylalanine] | 195 to 198 | 26.3 | 
